Structures can show the parent of a compound that is named as a salt.
Key:
whole cells = assay: Conversion of diamidoxime to diamidine by whole cells (Example 2); format: in vitro ADME; settings: preliminary results
Pneumocystis carinii [1] = assay: Activity against Pneumocystis carinii pneumonia (PCP) in the rat model, dibenzofuran dications (Example 2, Table 2); format: in vivo; settings: for response vs control in vivo at 33 µmol/kg / response vs control in vivo at 10 µmol/kg / response vs control in vivo at 22 µmol/kg: Pneumocystis carinii, 336 h, read-out: Pneumocystis carinii % Saline control ± std error; for response vs control in vivo at 33 µmol/kg: 33.0 μmol/kg/day by oral gavage; for response vs control in vivo at 10 µmol/kg / response vs control in vivo at 22 µmol/kg: iv
Text: Compounds 1-3 and 5-7 in the initial screen were given once daily by tail vein injection at a dose of 10 μmol/kg/day for 14 days, with activities compared to pentamidine at approximately one-half the effective iv dose of pentamidine, which is 22 μmol/kg/day.
Compounds 4 and 8 were synthesized to test if diamidoximes would be effective prodrugs of the dibenzofuran diamidines. Both the diamidoximes were screened for anti-P. carinii activity at 10 μmol/kg/day by tail vein injection and 33 μmol/kg/day by oral gavage for 14 days. […] Further studies of diamidoxime metabolism are being performed using cultured cell lines and cell-free enzyme preparations to understand more about the metabolic mechanisms of prodrug activation.
^a Dose units were μmol/kg/day. Each compound was administered to 8
rats once daily for 14 days. Doses marked with (*) were by oral gavage,
all others were i.v. via tail vein.
^c Cysts/g lung counts for the saline and pentamidine control groups
were pooled across experiments. Scores for each compound were reported as
% of the pooled saline scores. Saline: 47.53 × 10^6 cysts/g lung
(n = 45). Petamidine: 0.38 × 10^6 cysts/g lung (n = 42).

Pneumocystis carinii [2] = assay: animal or person; format: in vivo, Pneumocystis carinii; rat; settings: for response vs control in vivo at 10 µmol/kg: 10.0 μmol/kg/day iv via tail vein, rats (4 rats for 3, 4, 9)
Text: The activity is expressed as the percent of cysts counted in treated groups as compared to untreated controls. All of the compounds in the initial screen were given by tail vein injection at a dose of 10 μmol/kg/day for 14 days. The test compounds were compared for efficacy with the standard anti-PCP compound, pentamidine, at one-half the dose of pentamidine. […] Among the 2,8-substituted derivatives, the diamidine 1 and the bis-N-isopropylamidine 2 were very potent. A dose response study was performed upon compound 2.
^c Expressed as μmol/kg/day, given iv via tail vain to at least 8
rats once daily for 14 days, unless stated otherwise.
^e Cysts/g lung counts were 69.18 (× 10^6) for the saline
control group and 0.51 (× 10^6) for the pentamidine group. These
scores were pooled across experiments involving compounds 1-9. Saline: n =
55; pentamidine: n = 52.
^g Doses given to 4 rats.
^h Doses given by oral gavage.

Pneumocystis carinii [3] = settings: rat, in vivo; cited from earlier work
[4] = 10.0 μmol/kg/day i.v. via tail vein, once daily 14 days, 8 rats
[5] = Pneumocystis carinii, in Rattus norvegicus, iv, 336 h, once daily 14 days, read-out: Pneumocystis carinii % Saline control ± std error

Cl.Cl.N=C(NO)c1ccc2oc3ccc(C(=N)NO)cc3c2c1 [Compound 4 (Example 2), 2,8-Di(N-hydroxylamidino)dibenzofuran dihydrochloride]
conversion of diamidoxime to diamidine (in words) (whole cells): less efficient than conversion of pentamidoxime to pentamidine by whole cells
response vs control in vivo at 33 µmol/kg (Pneumocystis carinii [1]; once daily 14 days, 8 rats): 45.1 ± 21.6%
response vs control in vivo at 10 µmol/kg (Pneumocystis carinii [1]; [4]): 15.8 ± 14.6%

N=C(N)c1ccc2sc3ccc(C(=N)N)cc3c2c1 [Compound 1]
response vs control in vivo at 10 µmol/kg (Pneumocystis carinii [2]; [5]): 0.1 ± 0.03%

N=C(N)c1ccc(OCCCCCOc2ccc(C(=N)N)cc2)cc1 [Pentamidine, reference compound]
response vs control in vivo at 22 µmol/kg (Pneumocystis carinii [2]; Pneumocystis carinii, in Rattus norvegicus, iv, 336 h, read-out: Pneumocystis carinii % Saline control ± std error): 0.74 ± 0.12%
Cysts/g lung counts (Pneumocystis carinii [2]; pentamidine group pooled across experiments, n = 52, 22.0 μmol/kg/day iv): 0.51 × 10^6 cysts/g lung
response vs control in vivo at 22 µmol/kg (Pneumocystis carinii [1]): 0.8 ± 0.17%
Cysts/g lung counts (Pneumocystis carinii [1]; pentamidine control group pooled across experiments, n = 42): 0.38 × 10^6 cysts/g lung

CC(C)NC(=N)c1ccc2c(c1)sc1cc(C(=N)NC(C)C)ccc12 [Compound 8]
response vs control in vivo at 10 µmol/kg (Pneumocystis carinii [2]; [5]): 0.04 ± 0.02%

c1cc2oc3ccc(C4=NCCN4)cc3c2cc1C1=NCCN1 [Compound 2 (Example 2), 2,8-Di(2-imidazolinyl)dibenzofuran dihydrochloride]
response vs control in vivo at 10 µmol/kg (Pneumocystis carinii [1]; [4]): 97.4 ± 31.9%

CC(C)NC(=N)c1ccc2sc3ccc(C(=N)NC(C)C)cc3c2c1 [Compound 2]
response vs control in vivo at 0.1 µmol/kg (Pneumocystis carinii [2]; Pneumocystis carinii, in Rattus norvegicus, iv, 336 h, 0.1 μmol/kg/day iv, once daily 14 days, rats, read-out: Pneumocystis carinii % Saline control ± std error): 94.8 ± 28.3%
response vs control in vivo at 1 µmol/kg (Pneumocystis carinii [2]; Pneumocystis carinii, in Rattus norvegicus, iv, 336 h, 1.0 μmol/kg/day iv, once daily 14 days, rats, read-out: Pneumocystis carinii % Saline control ± std error): 12.8 ± 4.02%
response vs control in vivo at 2.5 µmol/kg (Pneumocystis carinii [2]; Pneumocystis carinii, in Rattus norvegicus, iv, 336 h, 2.5 μmol/kg/day iv, once daily 14 days, rats, read-out: Pneumocystis carinii % Saline control ± std error): 0.19 ± 0.1%
response vs control in vivo at 5 µmol/kg (Pneumocystis carinii [2]; Pneumocystis carinii, in Rattus norvegicus, iv, 336 h, 5.0 μmol/kg/day iv, once daily 14 days, rats, read-out: Pneumocystis carinii % Saline control ± std error): 0.04 ± 0.01%
response vs control in vivo at 10 µmol/kg (Pneumocystis carinii [2]; [5]): 0.01 ± 0.01%

N=C(N)c1ccc2oc3ccc(C(=N)N)cc3c2c1 [Compound 1 (Example 2), 2,8-Diamidinodibenzofuran dihydrochloride]
response vs control in vivo at 10 µmol/kg (Pneumocystis carinii [1]): 7.15 ± 3.81%
response vs control in vivo at 22 µmol/kg (Pneumocystis carinii [1]): 0.1 ± 0.02%

N=C(N)c1ccc2c(c1)oc1cc(C(=N)N)ccc12 [Compound 5 (Example 2), 3,7-Diamidinodibenzofuran dihydrochloride]
response vs control in vivo at 10 µmol/kg (Pneumocystis carinii [1]; [4]): 183 ± 38.3%

N=C(N)c1ccc2c(c1)sc1cc(C(=N)N)ccc12 [Compound 7]
response vs control in vivo at 10 µmol/kg (Pneumocystis carinii [2]; [5]): 36 ± 9.59%

O=S1(=O)c2ccc(C3=NCCN3)cc2-c2cc(C3=NCCN3)ccc21 [Compound 6]
response vs control in vivo at 10 µmol/kg (Pneumocystis carinii [2]; [5]): 93.5 ± 9.58%

NC(=NO)c1ccc2c(c1)oc1cc(C(N)=NO)ccc12 [Compound 8 (Example 2), 3,7-Di(A-hydroxylamidino)dibenzofuran dihydrochloride]
response vs control in vivo at 33 µmol/kg (Pneumocystis carinii [1]; once daily 14 days, 8 rats): 150 ± 54%
response vs control in vivo at 10 µmol/kg (Pneumocystis carinii [1]; [4]): 166 ± 109%

c1cc2c(cc1C1=NCCN1)oc1cc(C3=NCCN3)ccc12 [Compound 6 (Example 2), 3,7-Di(2-imidazolinyl)dibenzofuran dihydrochloride]
response vs control in vivo at 10 µmol/kg (Pneumocystis carinii [1]; [4]): 220 ± 39.3%

N/C(=N\O)c1ccc(OCCCCCOc2ccc(/C(N)=N/O)cc2)cc1 [Pentamidoxime, reference compound]
prodrug behaviour (in words) (Pneumocystis carinii [3]): an effective prodrug
response vs control in vivo at 33 µmol/kg (Pneumocystis carinii [1]; once daily 14 days, 8 rats): 13.8 ± 9.12%
response vs control in vivo at 22 µmol/kg (Pneumocystis carinii [1]; 22.0 μmol/kg/day i.v. via tail vein, once daily 14 days, 8 rats): 0.11 ± 0.02%

NC(=NO)c1ccc2sc3ccc(C(N)=NO)cc3c2c1 [Compound 3]
response vs control in vivo at 10 µmol/kg (Pneumocystis carinii [2]; [5]): 1.3 ± 0.84%

c1cc2sc3ccc(C4=NCCN4)cc3c2cc1C1=NCCN1 [Compound 5]
response vs control in vivo at 10 µmol/kg (Pneumocystis carinii [2]; [5]): 28 ± 12.7%

CC(C)NC(=N)c1ccc2oc3ccc(C(=N)NC(C)C)cc3c2c1 [Compound 3 (Example 2), 2,8-Di(N-isopropylamidino)dibenzofuran dihydrochloride]
response vs control in vivo at 10 µmol/kg (Pneumocystis carinii [1]; [4]): 0.5 ± 0.27%

CC(C)NC(=N)c1ccc2c(c1)oc1cc(C(=N)NC(C)C)ccc12 [Compound 7 (Example 2), 3,7-Di(isopropylamidino)dibenzofuran dihydrochloride]
response vs control in vivo at 10 µmol/kg (Pneumocystis carinii [1]; [4]): 0.28 ± 0.27%

Cl.Cl.N=C(NO)c1ccc2c(c1)sc1cc(C(=N)NO)ccc12 [Compound 9 (Example 1), 3,7-Bis(N-hydroxyamidino)dibenzothiophene dihydrochloride]
response vs control in vivo at 10 µmol/kg (Pneumocystis carinii [2]; [5]): 112 ± 76.5%
response vs control in vivo at 33 µmol/kg (Pneumocystis carinii [2]; Pneumocystis carinii, in Rattus norvegicus, po, 336 h, 33.0 μmol/kg/day by oral gavage, once daily 14 days, 4 rats, read-out: Pneumocystis carinii % Saline control ± std error): 45.6 ± 26.1%
anti-PCP activity by both routes (in words) (Pneumocystis carinii [2]; intravenous and oral administration): inactive by both intravenous and oral administration

From US6172104A, “Dicationic dibenzofuran and dibenzothiophene compounds and methods of use thereof” (priority 1999, dated 2001)
